Measurements taken from ChEMBL document CHEMBL1201862, “PubChem BioAssay data set” (2004).
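The compound was tested at five concentrations on cells cultured in 96-well plates, with a 48-hour exposure period. GI50 = concentration required for 50% inhibition of growth.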 Activity calls are given as the source filed them. No stated cut-off is given here; in the data, active = GI50 up to about 1.1 µM and inactive = higher.

Columns and labels:
Assay in all cases: NCI-60 cell line screen, 48 h
COLO 205 = system: COLO 205
SK-OV-3 = system: SK-OV-3
OVCAR-4 = system: OVCAR-4
ACHN = system: ACHN
SW-620 = system: SW-620
UACC-62 = system: UACC-62
SF-268 = system: SF-268
Malme-3M = system: Malme-3M
MDA-MB-231 = system: MDA-MB-231
SNB-19 = system: SNB-19
M14 = system: M14
KM12 = system: KM12
SN12C = system: SN12C
DU-145 = system: DU-145
UO-31 = system: UO-31
LOX IMVI = system: LOX IMVI
CCRF-CEM = system: CCRF-CEM
NCI-H460 = system: NCI-H460
CAKI-1 = system: CAKI-1
HOP-92 = system: HOP-92

Structure (SMILES)	GI50 (COLO 205)	GI50 (SK-OV-3)	GI50 (OVCAR-4)	GI50 (ACHN)	GI50 (SW-620)	GI50 (UACC-62)	GI50 (SF-268)	GI50 (Malme-3M)	GI50 (MDA-MB-231)	GI50 (SNB-19)	GI50 (M14)	GI50 (KM12)	GI50 (SN12C)	GI50 (DU-145)	GI50 (UO-31)	GI50 (LOX IMVI)	GI50 (CCRF-CEM)	GI50 (NCI-H460)	GI50 (CAKI-1)	GI50 (HOP-92)
CC(=O)Oc1cc2oc(=O)cc(C)c2cc1OC(C)=O	48 µM (inactive)	> 100 µM (inactive)	85.7 µM (inactive)	42.2 µM (inactive)	46.2 µM (inactive)	58.2 µM (inactive)	36.6 µM (inactive)	28.5 µM (inactive)	58.7 µM (inactive)	> 100 µM (inactive)	50.6 µM (inactive)	68.7 µM (inactive)	48.1 µM (inactive)	52.7 µM (inactive)	24.6 µM (inactive)	40.2 µM (inactive)	16.7 µM (inactive)			
COC(C(=O)NN)c1ccccc1 (stereo not drawn)		> 100 µM (inactive)		> 100 µM (inactive)	> 100 µM (inactive)	> 100 µM (inactive)	> 100 µM (inactive)	> 100 µM (inactive)		> 100 µM (inactive)	> 100 µM (inactive)	> 100 µM (inactive)	> 100 µM (inactive)	> 100 µM (inactive)	> 100 µM (inactive)			> 100 µM (inactive)	> 100 µM (inactive)	> 100 µM (inactive)
c1ccc(C2SCc3nc4ccccc4n32)cc1 (stereo not drawn)	37.8 µM (inactive)	91.8 µM (inactive)	66.7 µM (inactive)	59.3 µM (inactive)	51.4 µM (inactive)	37.2 µM (inactive)	37.9 µM (inactive)	38.3 µM (inactive)		32.2 µM (inactive)	84.5 µM (inactive)	32.4 µM (inactive)	46.1 µM (inactive)		24.6 µM (inactive)	39.9 µM (inactive)	76.2 µM (inactive)	40.8 µM (inactive)	42.7 µM (inactive)	22.2 µM (inactive)
O=C(Cn1c(=O)oc2ccccc21)N(c1ccccc1)c1ccccc1	> 100 µM (inactive)	> 100 µM (inactive)		> 100 µM (inactive)	> 100 µM (inactive)	> 100 µM (inactive)	67.5 µM (inactive)	3.39 µM (inactive)	> 100 µM (inactive)	> 100 µM (inactive)	> 100 µM (inactive)	> 100 µM (inactive)	> 100 µM (inactive)	> 100 µM (inactive)	> 100 µM (inactive)	> 100 µM (inactive)	> 100 µM (inactive)	> 100 µM (inactive)	> 100 µM (inactive)	
N#Cc1c(-c2ccccc2)c(/N=N/c2ccc(Cl)cc2)c(=O)n2c1[nH]c1ccccc12	> 100 µM (inactive)	94.2 µM (inactive)	15.7 µM (inactive)	> 100 µM (inactive)	> 100 µM (inactive)		79.1 µM (inactive)	> 100 µM (inactive)	> 100 µM (inactive)	> 100 µM (inactive)	> 100 µM (inactive)	44.2 µM (inactive)	> 100 µM (inactive)		46.9 µM (inactive)	> 100 µM (inactive)	> 100 µM (inactive)	35.5 µM (inactive)	24.3 µM (inactive)	
COc1ccccc1C1c2cc3c(cc2OC(N2CCCC2)C1C)OCO3 (stereo not drawn)	18 µM (inactive)		21.6 µM (inactive)	14.5 µM (inactive)	18 µM (inactive)	16.2 µM (inactive)	13.6 µM (inactive)	18.4 µM (inactive)		17.9 µM (inactive)	13.7 µM (inactive)	19.3 µM (inactive)	17.1 µM (inactive)	15.2 µM (inactive)	10.4 µM (inactive)	16.9 µM (inactive)	19.5 µM (inactive)	16.4 µM (inactive)	9.84 µM (inactive)	3.08 µM (inactive)
CC(=O)O[C@@H]1CN(S(=O)(=O)c2ccc(C)cc2)C[C@@H]1C1CCCCC1	18.5 µM (inactive)	62.2 µM (inactive)	50.6 µM (inactive)	37.5 µM (inactive)	20.4 µM (inactive)	16.1 µM (inactive)	16.8 µM (inactive)			54.8 µM (inactive)	15.8 µM (inactive)	16.1 µM (inactive)		30.8 µM (inactive)	31 µM (inactive)	24.6 µM (inactive)	37.8 µM (inactive)	34.5 µM (inactive)	19 µM (inactive)	14.7 µM (inactive)
CC1(C)CC[C@]2(C(=O)O)CC[C@]3(C)C(=CC[C@@H]4[C@@]5(C)CC[C@@H]6OC(C)(C)OC[C@@]6(C)[C@@H]5CC[C@]43C)[C@H]2C1	11.3 µM (inactive)	17.1 µM (inactive)	3.05 µM (inactive)	3.24 µM (inactive)	14.5 µM (inactive)	10.4 µM (inactive)	8.04 µM (inactive)	12.6 µM (inactive)	3.04 µM (inactive)	17.6 µM (inactive)	15.5 µM (inactive)		3.13 µM (inactive)	9.86 µM (inactive)	12.1 µM (inactive)	4.8 µM (inactive)	15.4 µM (inactive)	5.46 µM (inactive)	9.91 µM (inactive)	
Clc1ccc(-c2c(C3=NCCN3)nnn2-c2ccccc2)cc1	40.1 µM (inactive)	> 100 µM (inactive)	> 100 µM (inactive)	> 100 µM (inactive)	> 100 µM (inactive)	> 100 µM (inactive)	> 100 µM (inactive)	> 100 µM (inactive)		> 100 µM (inactive)	> 100 µM (inactive)	> 100 µM (inactive)	> 100 µM (inactive)		82.4 µM (inactive)	> 100 µM (inactive)	> 100 µM (inactive)	> 100 µM (inactive)	> 100 µM (inactive)	92 µM (inactive)
CCOC(=O)C1=C(O)C(=O)c2ccoc2C1=O	> 100 µM (inactive)	> 100 µM (inactive)	> 100 µM (inactive)	> 100 µM (inactive)	> 100 µM (inactive)	> 100 µM (inactive)	> 100 µM (inactive)	> 100 µM (inactive)		> 100 µM (inactive)	> 100 µM (inactive)	> 100 µM (inactive)	> 100 µM (inactive)		> 100 µM (inactive)	> 100 µM (inactive)	> 100 µM (inactive)	> 100 µM (inactive)	> 100 µM (inactive)	> 100 µM (inactive)
CN(C(=O)Cc1ccc(Cl)c(Cl)c1)[C@H]1CCCC[C@@H]1[N+]1(C)CCCC1	> 100 µM (inactive)	> 100 µM (inactive)	> 100 µM (inactive)	> 100 µM (inactive)	> 100 µM (inactive)	> 100 µM (inactive)	> 100 µM (inactive)	> 100 µM (inactive)	> 100 µM (inactive)	> 100 µM (inactive)	> 100 µM (inactive)	> 100 µM (inactive)	> 100 µM (inactive)	> 100 µM (inactive)	> 100 µM (inactive)	> 100 µM (inactive)	3.37 µM (inactive)		> 100 µM (inactive)	
O=C1C2=C(c3ccccc31)C(c1ccccc1Cl)N1C(=O)CSC1=N2 (stereo not drawn)	> 100 µM (inactive)	> 100 µM (inactive)	60.1 µM (inactive)	> 100 µM (inactive)	> 100 µM (inactive)	59.4 µM (inactive)	56.2 µM (inactive)	> 100 µM (inactive)		> 100 µM (inactive)	> 100 µM (inactive)	> 100 µM (inactive)	> 100 µM (inactive)		54 µM (inactive)	> 100 µM (inactive)	44.3 µM (inactive)	> 100 µM (inactive)	> 100 µM (inactive)	32.5 µM (inactive)
CN(NC(=O)c1cccs1)C1=NCCN1	> 100 µM (inactive)	> 100 µM (inactive)	> 100 µM (inactive)	> 100 µM (inactive)	> 100 µM (inactive)	> 100 µM (inactive)	> 100 µM (inactive)	> 100 µM (inactive)	> 100 µM (inactive)	> 100 µM (inactive)	> 100 µM (inactive)	> 100 µM (inactive)			> 100 µM (inactive)	> 100 µM (inactive)	> 100 µM (inactive)	> 100 µM (inactive)		> 100 µM (inactive)
Nc1nc(N)c(CCCCc2ccccc2)c(/C=C/c2ccc([N+](=O)[O-])cc2)n1	3.39 µM (inactive)	6.67 µM (inactive)	3.94 µM (inactive)	3.4 µM (inactive)	1.24 µM (inactive)	2.07 µM (inactive)	3.7 µM (inactive)	1.67 µM (inactive)		3.8 µM (inactive)	1.89 µM (inactive)	3.03 µM (inactive)	2.74 µM (inactive)		1.91 µM (inactive)	1.85 µM (inactive)	1.69 µM (inactive)	0.873 µM (active)	3.92 µM (inactive)	0.0182 µM (active)
CC(=O)O[C@H]1CC2C(C3CCC(C(C)CCC(=O)O)[C@]31C)[C@H](OC(C)=O)C[C@@H]1CC3(CC[C@]21C)OOC1(CC[C@]2(C)C4C[C@H](OC(C)=O)[C@]5(C)C(C(C)CCC(=O)O)CCC5C4[C@H](OC(C)=O)C[C@@H]2C1)OO3 (stereo partly drawn)	1.91 µM (inactive)	4.08 µM (inactive)	2.8 µM (inactive)	1.71 µM (inactive)	3.46 µM (inactive)		1.38 µM (inactive)	1.52 µM (inactive)	2.01 µM (inactive)	2.86 µM (inactive)	2.53 µM (inactive)	1.31 µM (inactive)	2.42 µM (inactive)	1.2 µM (inactive)	1.74 µM (inactive)	1.63 µM (inactive)	2.59 µM (inactive)	1.48 µM (inactive)	2.19 µM (inactive)	
